{
  "source": "patent US20260317388A1",
  "about": "“SELECTIVE NUCLEAR BLOCKADE FOR THE TREATMENT OF SEPSIS” (priority 2023, published 2026)",
  "key": {"Solubility": {"test": "Solubility", "type": "physicochemical"}, "sepsis": {"test_system": "sepsis", "conditions": "antibiotic-treated control group; cited from earlier work"}},
  "note": "Positions of bridges follow the written chain, without caps; N, C: chain ends. Residues, ends and D or L forms follow the SMILES beside them.",
  "data": [
    {"smiles": "CSCC[C@@H]1NC(=O)[C@H](CC(C)C)NC(=O)[C@H](CCCCN)NC(=O)[C@H](CCC(N)=O)NC(=O)[C@H](CCCNC(=N)N)NC(=O)[C@H](CCCCN)NC(=O)[C@H](CCCNC(=N)N)NC(=O)[C@H](CCC(N)=O)NC(=O)[C@H](C(C)C)NC(=O)[C@@H](NC(=O)[C@@H]2CCCN2C(=O)[C@H](C)NC(=O)[C@H](CC(C)C)NC(=O)[C@H](CC(C)C)NC(=O)[C@H](C)NC(=O)[C@H](CC(C)C)NC(=O)[C@H](CC(C)C)NC(=O)[C@@H](NC(=O)[C@H](C)NC(=O)[C@@H]2CCCN2C(=O)[C@H](CC(C)C)NC(=O)[C@H](CC(C)C)NC(=O)[C@H](C)NC(=O)[C@@H](NC(=O)[C@H](C)NC(=O)[C@H](C)N)C(C)C)C(C)C)CSSC[C@@H](C(=O)O)NC(=O)[C@@H]2CCCN2C1=O", "note": "[cSN50.1] (H-AAVALLPAVLLALLAPCVQRKRQKLMPC-OH; disulfide 17-28)", "values": [
      {"measurement": "solubility", "setting": "Solubility", "result": "≥ 100", "unit": "mg/mL"},
      {"measurement": "water solubility and bioavailability relative to SN50 peptide", "setting": "Solubility; vs first generation NTCI (SN50 peptide)", "result": 8, "unit": "times"}
    ]},
    {"smiles": "C[C@@H](O)[C@H]1C(=O)N2C(C(=O)O)=C(S[C@@H]3CN[C@H](C(=O)N(C)C)C3)[C@H](C)[C@H]12", "note": "[meropenem]", "values": [
      {"measurement": "survival with meropenem alone", "setting": "sepsis", "result": 30, "unit": "%"}
    ]}
  ]
}
